Assay results taken from article PMC12011790, “Synergistic chemo-immunotherapy for osteosarcoma via a pH-responsive multi-component nanoparticle system” (Frontiers in Pharmacology, 2025).

Columns and labels:
[1] = Body weight during treatment (systemic toxicity); assay type: in vivo, C3H/HeJ mice; conditions: LM8-bearing mice; tail vein, DOX equivalent 10 mg/kg every other day, 7 doses
Procedure: (§1) Each group received the corresponding treatment via tail vein injection, with a DOX equivalent dose of 10 mg/kg administered every other day for a total of 7 doses. Tumor volume and mouse body weight were recorded every other day during the treatment. On day 14, the mice were euthanized under anesthesia, and the tumors were excised and weighed for further analysis. The tumor was further stained with hematoxylin and eosin (H&E) after mice sacrificed.

[2] = test system: LM8 murine osteosarcoma cells; experiment: CCK-8 cell viability; assay type: cell-based; conditions: 48 h, pH not stated, mean ± SD, n = 3
Procedure: The LM8 murine osteosarcoma cell line, derived from C3H/He mice, was purchased from HyCyte™ (Suzhou, China). LM8 cells were maintained in Dulbecco’s modified Eagle’s medium (DMEM, Gibco, NY, United States) supplemented with 10% fetal bovine serum (FBS, Gibco). Cells were cultured at 37°C in an incubator under 5% CO2.
LM-8 cells were seeded at a density of 1 × 10^6 cells/mL in a 96-well plate. After 24 h incubation, the culture medium was replaced with 100 μL of medium containing serial dilutions of different treatment samples. After 48 h incubation, 10 μL of the CCK-8 reagent (Dojindo, Kyushu, Japan) was added into each well and incubated for further 2 h at 37°C. The absorbance of each sample was measured at 450 nm using a multifunction microplate reader (Biotek, VT, United States).

LM8 osteosarcoma = experiment: Antitumor efficacy in LM8-bearing osteosarcoma model; assay type: in vivo; conditions: LM8-bearing C3H/HeJ mice, tail vein, DOX equivalent 10 mg/kg every other day, 7 doses, n = 5
Procedure: To investigate the in vivo antitumor effects, male C3H/HeJ mice (8–10 weeks old) were purchased from GemPharmatech (Nanjing, China). All animal experiments were conducted with the relevant institutional guidelines of Jiangsu University, and were approved by the Institutional Animal Care And Use Committees of Jiangsu University (UJS-IACUC-2024080202).
[…] LM8-bearing OS model was established by injected subcutaneously 1 × 10^7 LM8 cells into the backs of mice. Tumor growth was allowed to proceed for approximately 7 days prior to treatment until the tumors reached a measurable size. Tumor size was monitored using a caliper, with tumor volume calculated according to the formula: (length × width^2)/2.
as §1

[3] = cumulative doses exceeding 550 mg/m^2; ref Alberts and Garcia, 1997; Treat et al., 1990; cited from earlier work
Source text: A major challenge in OS treatment lies in the toxicity associated with conventional chemotherapeutic agents. […] Although reducing DOX dosage can alleviate the cardiotoxicity, this reduction risks compromising the therapeutic efficacy, particularly its ability to induce immunogenic cell ...

LM8 cells [4] = experiment: Calreticulin (CRT) surface exposure, flow cytometry; assay type: cell-based, murine; conditions: 10 μM DOX or equivalent, 24 h, mean ± SEM by Figure 3 legend
Procedure: (§2) The immunogenic cell death (ICD) biomarkers, including calreticulin (CRT), high-mobility group box 1 (HMGB1), and adenosine triphosphate (ATP), were analyzed. LM-8 cells were seeded in 24-well plates at a density of 1 × 10^5 cells per well, and the cells were allowed to grow to an appropriate confluence.
After treatment, the cells were digested, collected, and washed twice with cold PBS. To determine the surface expression of CRT, the cells were blocked with CD16/32 antibody for 10 min, incubated with Alexa 488-anti-CRT antibody (EPR3924, 1:500 v/v, Abcam) for 15 min at 4°C, washed once with PBS, resuspended with PBS, and detected by flow cytometry.

LM8 cells [5] = experiment: Extracellular ATP release, bioluminescence kit; assay type: cell-based, murine; conditions: LM8 culture supernatant, 10 μM DOX or equivalent, 24 h, mean ± SEM by Figure 3 legend
Procedure: as §2
On the other hand, additional sets of cells received identical treatments were employed to determine the released HMGB1 and ATP. Briefly, culture supernatant was collected and centrifuged to remove cell debris. Subsequently, the extracellular HMGB1 was quantified using an enzyme-linked immunosorbent assay (ELISA) kits (R&D systems, China), whereas the supernatant ATP was quantified using a bioluminescence kit (No. S0026, Beyotime, China) and measured by a multifunction microplate reader.

[6] = test system: immune cell populations in the tumor, and tumor-draining lymph nodes; experiment: Flow cytometric immune cell profiling of tumor and tumor-draining lymph nodes; assay type: in vivo, C3H/HeJ mice; conditions: post-treatment, flow cytometry
Source text: Flow cytometry was applied to characterize the change in immune cell populations in the tumor, and tumor-draining lymph nodes (TDLNs). Excised tumors were harvested, homogenized and consecutively strained through 70-μm filters to obtain single cell suspensions, while the lymph nodes were manually dissociated through a 40-μm filter to obtain a single cell suspension. Cells were stained with fluorescent antibodies to identify immune cell pollutions.
Single-cell suspensions of TDLNs were stained with CD11c (clone N418; Biolegend), CD80 (clone 16-10A1; Biolegend), CD86 (clone GL1; Biolegend) for the analysis of mature DCs.
Single-cell suspensions of tumor tissues were stained with CD3 (clone 145-2C11; BD), CD4 (clone RM4-5; BD), CD8 (clone 53–6.7; Biolegend), CD62L (clone MEL-14; Biolegend), or CD44 (clone 1M7; Biolegend) antibodies for flow cytometry analysis. For intracellular cytokine and marker staining, after extracellular staining, cells were fixed and permeabilized with BD Cytofix/Cytoperm kit (BD Biosciences) and incubated with fluorescently conjugated antibodies against IFNγ (clone XMG1.2; Biolegend) or granzyme B (clone GB11; Biolegend) antibodies. […] Samples were run on a Beckman Coulter Gallios™ flow cytometer and analyzed using FlowJo software.

[7] = Stability (retention) of the PD-1/PD-L1 peptide in PBS and FBS-containing PBS, HPLC; assay type: in vitro ADME; conditions: 48 h; for peptide content remaining: peptide conjugated in co-loaded nanoparticles, FBS-containing PBS (50% FBS), mean ± SD, n = 3, SD
Source text: […] Peptide content was quantified using high-performance liquid chromatography (HPLC). This analysis aimed to determine peptide degradation in PBS and FBS-containing media, considering the potential influence of protease activity present in serum.

peptide remaining intact ([7]; peptide conjugated as DSPE-PEG-peptide in co-loaded nanoparticles, PBS, 37°C, n = 3) | peptide content remaining ([7]; 25°C) | peptide content remaining ([7]; 37°C) | Compound | body weight change [1] | IC50 [2] | tumor growth (tumor volume) (LM8 osteosarcoma; 14 days) | tumor mass at end of study (LM8 osteosarcoma; day 14) | long-term survivors affected by cardiotoxicity [3] | CRT exposure (% of cells) (LM8 cells [4]) | extracellular ATP level (LM8 cells [5]) | infiltrated CTLs (CD3+CD8+) in tumor tissue [6]
– | – | – | COc1cccc2c1C(=O)c1c(O)c3c(c(O)c1C2=O)C[C@@](O)(C(=O)CO)C[C@@H]3O[C@H]1C[C@H](N)[C@H](O)[C@H](C)O1.Cl [free DOX, Doxorubicin hydrochloride] | significant weight loss | 13.3 ± 1.24 µM | moderate reduction in tumor growth | moderate reductions in tumor mass | approximately 30% | 73.04% ± 6.35% | 266.05 ± 42.73 nM | moderate CTLs infiltration
over 90% | 78.57% ± 0.81% | 72.32% ± 1.26% | CGGGGSHFSASYDKYAEKF [PD-1/PD-L1 targeting peptide] | – | – | – | – | – | – | – | –
